From patent US20100099614A1, “Antimicrobial Peptides and Methods of Use” (priority 2008, published 2010)
In brackets after ≈: the same amount, converted by molar mass.

Tested on: Gram-negative bacteria
Assay: Antibacterial activity (MIC), microtiter dilution
Format: cell-based
Description: MICs were determined by a standard microtiter dilution method in Mueller Hinton Broth (MHB). Serial dilutions of the 10× compound were added to the microtiter plates in a volume of 10 μL followed by 90 μL of bacteria for an inoculum of 5×10^5 colony-forming units (CFU)/mL. The plates were incubated at 37° C. for 24 h, and the MICs were determined as the lowest peptide concentration that inhibited growth. […]
Alternatively; minimal inhibitory concentrations were determined using a standard microtiter dilution method in a Mueller-Hinton (MH) medium. Briefly, cells were grown overnight at 37° C. in MH broth and diluted in the same medium. Serial dilutions of the peptides were added to the microtiter plates in a volume of 100 μl followed by 10 μl of bacteria for an initial cell concentration of 1×10^5 CFU/ml. Plates were incubated at 37° C. for 24 hours and MICs determined as the lowest peptide concentration that inhibited growth.

## CC[C@@H](C)[C@@H](NC(=O)[C@@H](C)NC(=O)[C@@H](CCCCN)NC(=O)[C@@H](CC(C)C)NC(=O)[C@@H](C)NC(=O)[C@H](NC(=O)[C@@H](Cc1c[nH]cn1)NC(=O)[C@@H](CC(C)C)NC(=O)[C@H](NC(=O)[C@H](NC(=O)[C@@H](CCCCN)NC(=O)[C@@H](CCCCN)NC(=O)[C@@H](C)NC(=O)[C@@H](CO)NC(=O)[C@@H](CCCCN)NC(=O)[C@@H](Cc1ccccc1)NC(=O)[C@H](NC(=O)[C@@H](CCCCN)NC(=O)[C@@H](CC(C)C)NC(=O)[C@@H](Cc1ccccc1)NC(=O)[C@@H](CO)NC(=O)[C@@H](CCCCN)NC(=O)[C@@H](Cc1c[nH]c2ccccc12)NC(=O)[C@@H](CCCCN)NC(C)=O)[C@H](C)O)[C@H](C)O)C(C)C)[C@H](C)O)C(=O)N[C@H](CO)C(=O)N[C@H](CO)C(N)=O [D1]
E. coli C498 UB1005, MH medium, 37° C., 24 h
  MIC E. coli C498 UB1005: 2 µg/mL (≈ 0.669 µM)
E. coli C857 DH5a, MH medium, 37° C., 24 h
  MIC E. coli C857 DH5a: 2 µg/mL (≈ 0.669 µM)
E. coli UB1005, MH medium, 37° C., 24 h
  MIC E. coli UB1005: 4 µg/mL (≈ 1.34 µM)
P. aeruginosa PAO1, Mueller-Hinton medium, 37° C., 24 h, four sets of determinations
  MIC P. aeruginosa PAO1: 8 µg/mL (≈ 2.68 µM)
S. ryphimurium 14208S, MH medium, 37° C., 24 h
  MIC S. ryphimurium 14208S: 32 µg/mL (≈ 10.7 µM)
S. ryphimurium C587 14208S, MH medium, 37° C., 24 h
  MIC S. ryphimurium C587 14208S: 4 µg/mL (≈ 1.34 µM)
Relative to D4
  Fold improvement in antimicrobial activity (geometric mean data) compared to that of D4, Gram-negative bacteria: 4.5 fold
Six Gram-negative strains, 128 μg/mL used where no activity at 64 μg/mL
  MIC GM (geometric mean of the MIC values), Gram-negative bacteria: 5.0 µg/mL
